The supplement of paper PMC10307832

Assays:
Assay in all cases: relative viability (nuclei count vs DMSO), 5 days (fraction); higher = more cells survive
BGJ398 + Tozasertib = compound: CCN1CCN(c2ccc(Nc3cc(N(C)C(=O)Nc4c(Cl)c(OC)cc(OC)c4Cl)ncn3)cc2)CC1 [BGJ398] + Cc1cc(Nc2cc(N3CCN(C)CC3)nc(Sc3ccc(NC(=O)C4CC4)cc3)n2)n[nH]1 [Tozasertib] (partner 0.1 µM)
In short: (§1)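 After 5 days of treatment, lung cancer cells in 1536-well plates were fixed and stained in a single step (final 0.05% Triton X-100, 1% formaldehyde, 1 ug/ml Hoechst) and their nuclei counted on 4× images. Treatment had been applied by pin tool the day after seeding as one drug alone or as a fixed anchor-drug dose with five library-drug doses (not always all listed) in √10 steps. Relative viability is the nuclei count of treated wells divided by that of vehicle wells, and values are medians of duplicate plates.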

[1] = compound: C1=CC2=NC=CN=C2C=C1/C=C/3\C(=O)NC(=O)S3 + O=C(c1cc(Cc2n[nH]c(=O)c3ccccc23)ccc1F)N1CCN(C(=O)C2CC2)CC1 [Olaparib] (partner 8 µM)
In short: as §1

BGJ398 + Decitabine = compound: CCN1CCN(c2ccc(Nc3cc(N(C)C(=O)Nc4c(Cl)c(OC)cc(OC)c4Cl)ncn3)cc2)CC1 [BGJ398] + Nc1ncn([C@H]2C[C@H](O)[C@@H](CO)O2)c(=O)n1 [Decitabine] (partner 2 µM)
In short: as §1

[2] = compound: C1=CC2=NC=CN=C2C=C1/C=C/3\C(=O)NC(=O)S3 + CS(=O)(=O)CCNCc1ccc(-c2ccc3ncnc(Nc4ccc(OCc5cccc(F)c5)c(Cl)c4)c3c2)o1 [Lapatinib] (partner 2 µM)
In short: as §1

Cell Line | relative viability (BGJ398 + Tozasertib; first compound 0.01 µM) | relative viability (BGJ398 + Tozasertib; first compound 0.03162 µM) | relative viability (BGJ398 + Tozasertib; first compound 0.1 µM) | relative viability (BGJ398 + Tozasertib; first compound 0.3162 µM) | relative viability (BGJ398 + Tozasertib; first compound 1 µM) | relative viability ([1]; first compound 0.02 µM) | relative viability ([1]; first compound 0.06325 µM) | relative viability ([1]; first compound 0.2 µM) | relative viability ([1]; first compound 0.6325 µM) | relative viability ([1]; first compound 2 µM) | relative viability (BGJ398 + Decitabine; first compound 0.01 µM) | relative viability (BGJ398 + Decitabine; first compound 0.03162 µM) | relative viability (BGJ398 + Decitabine; first compound 0.1 µM) | relative viability (BGJ398 + Decitabine; first compound 0.3162 µM) | relative viability (BGJ398 + Decitabine; first compound 1 µM) | relative viability ([2]; first compound 0.02 µM) | relative viability ([2]; first compound 0.06325 µM) | relative viability ([2]; first compound 0.2 µM) | relative viability ([2]; first compound 0.6325 µM) | relative viability ([2]; first compound 2 µM)
NCI-H2347 | 0.698 | 0.575 | 0.515 | 0.621 | 0.567 | 0.528 | 0.583 | 0.553 | 0.635 | 0.543 | 0.608 | 0.621 | 0.612 | 0.621 | 0.563 | 0.886 | 0.88 | 1 | 0.79 | 0.852
NCI-H2405 | 0.727 | 0.812 | 0.712 | 0.727 | 0.712 | 0.791 | 0.999 | 0.851 | 0.848 | 0.712 | 0.703 | 0.74 | 0.81 | 0.734 | 0.741 | 1.24 | 1.39 | 1.13 | 1.11 | 0.323
NCI-H3122 | 0.383 | 0.403 | 0.377 | 0.407 | 0.379 | 0.552 | 0.679 | 0.568 | 0.556 | 0.619 | 0.394 | 0.416 | 0.458 | 0.478 | 0.42 | 1.09 | 1.03 | 1.04 | 0.988 | 0.972
PC-3 [JPC-3] | 0.958 |  | 0.867 | 0.829 | 0.842 | 1.07 | 1.18 | 1.11 | 1.18 | 1.13 | 0.782 |  | 0.777 |  | 0.878 | 0.481 | 0.559 | 0.454 | 0.439 | 0.441
PC-14 | 0.575 |  | 0.666 |  | 0.621 | 0.25 | 0.363 | 0.263 | 0.227 | 0.277 | 0.179 | 0.148 | 0.252 | 0.193 | 0.135 | 0.326 | 0.316 | 0.284 | 0.348 | 0.24
